Source: PMC12270663, “Cagrilintide lowers bodyweight through brain amylin receptors 1 and 3” (eBioMedicine, 2025)

Assays:
[1] = test system: WT and RAMP1/3 KO high fat diet fed mice; assay: Study 3: body composition by EchoMRI; format: in vivo, mouse; conditions: 3 nmol/kg/d s.c., 3 weeks
Experimental: (§1) Mice were s.c. injected once a day for 3 weeks 1 h before dark onset between 9.00 and 10.00 h. Prior to injection, daily body weight and food intake were measured manually. On the day of sacrifice, mice were anesthetised with pentobarbital (100 mg/kg, i.p., Cantonal Pharmacy of Zurich, Switzerland) 24 h after receiving the last dose of peptide.
Brains were harvested, snap frozen on dry ice and kept at −80 °C until mRNA extraction for next-generation sequencing (NGS) analysis. Blood samples were collected from the right ventricle of the heart during the sacrifice in 1 mL EDTA-coated tubes containing dipeptidyl peptidase-4 inhibitor (10 μL/mL blood; Sigma Aldrich, Switzerland, cat# DPP4-010) and protease inhibitor (30 μL/mL blood; Sigma Aldrich, Switzerland, cat# P2714). After centrifugation, plasma was kept at −80 °C. The mice were stored at −20 °C until body composition analysis was performed.
Lean and fat mass were measured post-mortem using EchoMRI (EchoMRI LLC, USA) at the Zurich Integrative Rodent Physiology (University of Zurich). Calibrations and measurements were performed according to manufacturer's instructions. Two measurements were performed and averaged per mouse. Fat mass and lean mass values are expressed as percent of body weight.

[2] = test system: LPBN neurons of WT and RAMP1/3 KO mice; assay: Study 4 cohort 1: cFos positive neurons, LPBN; format: in vivo, mouse; conditions: both 3 nmol/kg i.p., 90 min
Experimental: (§2) Mice were group housed in a controlled environment maintained at 21 ± 2 °C, under a 12/12 h light–dark cycle (lights off at 11.00 h). In the first cohort, 25 male WT and 25 male RAMP1/3 KO mice aged between 12 and 20 week-old were fed chow diet and maintained under group housing condition. In the second cohort, 18 male WT, 18 male RAMP1 KO, 18 male RAMP3 KO and 18 male RAMP1/3 KO mice aged between 10 and 15 week-old were fed chow diet and maintained under group housing condition.
For both cohorts, animals were deeply anesthetised 90 min later (pentobarbital 100 mg/kg, i.p) and transcardially perfused with cold 0.1 M of phosphate buffer (PB) for 1.5 min followed by 4% of paraformaldehyde (PFA) in PB for 2.5 min. Brains were removed and postfixed overnight in 4% of PFA and cryoprotected in 20% of sucrose-PB for 24 h. Brains were frozen in hexane on dry ice and stored at −80 °C until sectioning. […]
(§3) Photomicrographs of all sections containing AP, NTS and LPBN were taken at 20× magnification using Zeiss Axio Scan.Z1 slidescanner (Center for Microscopy and Image Analysis UZH, Zeiss, Germany). […] Scanned images were imported into QuPath (QuPath 0.5.0) for quantification. Three to four sections were counted and averaged per area of interest. […] The numbers of positive counted DAPI cells containing a cFos signal were automatically counted within the region. […]

WT 129S2 chow-fed mice = assay: Study 1: acute food intake and body weight response; format: in vivo, mouse; conditions: all doses (3, 30, 300 nmol/kg s.c.)
Experimental: Thirty-two 12 week-old male WT 129S2/SvEv mice (Janvier Elevage, France) were individually housed in food monitoring cages (BioDAQ, New Brunswick, NJ, USA). Mice were housed in a controlled environment maintained at 21 ± 2 °C, under a 12/12 h light–dark cycle (lights off at 10.00 h). They were adapted to the cages and hoppers for 2 weeks before being tested. Mice were fed water and chow diet ad libitum (3.14 kcal/g of food; Kliba, Switzerland, cat# 3436).
Mice were injected subcutaneously (s.c.) at dark onset after a 4 h fast in the light phase with vehicle, 3 nmol/kg, 30 nmol/kg or 300 nmol/kg of cagrilintide.

[3] = test system: area postrema (AP) neurons of WT and RAMP1/3 KO mice; assay: Study 4 cohort 1: cFos positive neurons, AP; format: in vivo, mouse; conditions: for Predicted (LS) mean diff., AP cFos after square root transformation: second statistical test, Figure 4b
Experimental: as §2
For both cohorts, animals were deeply anesthetised 90 min later (pentobarbital 100 mg/kg, i.p) and transcardially perfused with cold 0.1 M of phosphate buffer (PB) for 1.5 min followed by 4% of paraformaldehyde (PFA) in PB for 2.5 min. Brains were removed and postfixed overnight in 4% of PFA and cryoprotected in 20% of sucrose-PB for 24 h. Brains were frozen in hexane on dry ice and stored at −80 °C until sectioning. Stereological brain sampling of the areas of interest was performed and brain were serially cut on a cryostat (Leica Biosystems, Germany, cat# CM3050S), mounted on Superfrost Plus slides (Thermo Fisher Scientific, Reinach, Switzerland), and cryoprotected in 50% of PB, 30% of ethylene glycol, 20% of glycerol, and subsequently stored at −20 °C.
Blocking of the mouse brain sections was performed with 0.4% Triton–4% normal goat serum in PBS for 2 h at room temperature. AP/NTS and LPBN sections were incubated at 4 °C for 48 h with rabbit anti-Fos antibody (1:500, Cell signalling technology, Switzerland, Cat# 2250, RRID: AB_2247211), and then after PBS washes, incubated with goat anti-rabbit Alexa Fluor CY3 (1:200, LuBio Science GmbH, Switzerland for Jackson Immunoresearch, Cat# 111-165-144) or alexa fluor 488 for 2 h at room temperature. After thorough washing in PBS, the sections were counterstained with DAPI, mounted immediately and coverslipped with Vectashield antifade Mounting Medium (Vectorlabs, Burlingame, USA, cat# H-1400).[40]
Photomicrographs of all sections containing AP, NTS and LPBN were taken at 20× magnification using Zeiss Axio Scan.Z1 slidescanner (Center for Microscopy and Image Analysis UZH, Zeiss, Germany). All images for each study were acquired using the same exposure time. Scanned images were imported into QuPath (QuPath 0.5.0) for quantification. Three to four sections were counted and averaged per area of interest. A polygon tool was used manually to determine the boundary of the region of interest of the brain section. A cell detection tool was used to detect every cell in the section by using a built-in cell segmentation algorithm. The cell detection tool was used on the DAPI channel to make sure that only a cell was recognised and not the background or artefact by system. A detection classifier was created by using the create detection classifier function. The numbers of positive counted DAPI cells containing a cFos signal were automatically counted within the region. The experimental group was blinded to the experimenter during the analysis.

[4] = test system: AP neurons of WT, RAMP1 KO, RAMP3 KO and RAMP1/3 KO mice; assay: Study 4 cohort 2: cFos positive neurons, AP; format: in vivo, mouse; conditions: 3 nmol/kg i.p.
Experimental: as §2
Cohort 2: WT, RAMP1 KO, RAMP3 KO and RAMP1/3 KO were injected i.p. at dark onset after a 12 h fast in the light phase with vehicle or cagrilintide (3 nmol/kg) (n = 6/group).
For both cohorts, animals were deeply anesthetised 90 min later (pentobarbital 100 mg/kg, i.p) and transcardially perfused with cold 0.1 M of phosphate buffer (PB) for 1.5 min followed by 4% of paraformaldehyde (PFA) in PB for 2.5 min. […]
as §3

rCTR(a) = test system: rCTR(a); design: method as in PMID 34288673; conditions: pEC50 = -LogEC50; cited from earlier work
rAMYR3 = test system: rAMYR3; design: method as in PMID 34288673; conditions: pEC50 = -LogEC50; cited from earlier work
[5] = test system: WT and RAMP1/3 KO high fat diet fed mice; assay: Study 3: 3-week treatment, food intake and body weight; format: in vivo, mouse
Experimental: Male mice were housed in a controlled environment maintained at 21 ± 2 °C, under a 12/12 h light–dark cycle (lights off at 11.00 h). Mice had ad libitum access to standard chow (3.14 kcal/g of food; Kliba, Switzerland, cat# 3436) and water, until 3–4 weeks old. Twenty-four WT and twenty-four RAMP 1/3 KO male mice were fed a 60% fat HFD (5.24 kcal/g of food; SSNIFF Spezialdiäten GmbH, Germany, cat# EF D12452) provided ad libitum for 18 weeks. Then mice were fed to a 45% fat HFD (4.73 kcal/g of food; SSNIFF Spezialdiäten GmbH, Germany, cat# EF D12451) provided ad libitum for 6 weeks until the end of the study. The mice were group housed (3–4 mice per cage) until 1 week before the 21-day treatment period. Each cage was equipped with a red plastic house, tissue paper, nest-building material and wood shavings. Prior to the 21-day treatment, mice were injected with vehicle for three days to acclimate to the daily subcutaneous injections and reduce stress associated with the injections.
as §1

CC[C@H](C)[C@H](NC(=O)[C@@H]1CCCN1C(=O)CNC(=O)[C@H](Cc1ccccc1)NC(=O)[C@H](CC(N)=O)NC(=O)[C@H](CC(N)=O)NC(=O)[C@H](CO)NC(=O)[C@H](CO)NC(=O)[C@H](Cc1c[nH]cn1)NC(=O)[C@H](CCCNC(=N)N)NC(=O)[C@H](CC(C)C)NC(=O)[C@H](Cc1ccccc1)NC(=O)[C@H](CCC(=O)O)NC(=O)[C@H](C)NC(=O)[C@H](CC(C)C)NC(=O)[C@H](CCCNC(=N)N)NC(=O)[C@H](CCC(N)=O)NC(=O)[C@@H](NC(=O)[C@H](C)NC(=O)[C@@H]1CSSC[C@H](NC(=O)[C@H](CCCCN)NC(=O)CC[C@H](NC(=O)CCCCCCCCCCCCCCCCCCC(=O)O)C(=O)O)C(=O)N[C@@H](CC(N)=O)C(=O)N[C@@H]([C@@H](C)O)C(=O)N[C@@H](C)C(=O)N[C@@H]([C@@H](C)O)C(=O)N1)[C@@H](C)O)C(=O)N[C@@H](CC(C)C)C(=O)N1CCC[C@H]1C(=O)N1CCC[C@H]1C(=O)N[C@H](C(=O)N[C@@H](CC(N)=O)C(=O)N[C@H](C(=O)NCC(=O)N[C@@H](CO)C(=O)N[C@@H](CC(N)=O)C(=O)N[C@H](C(=O)N1CCC[C@H]1C(N)=O)[C@@H](C)O)C(C)C)[C@@H](C)O [Cagrilintide]
relative fat mass, RAMP1/3 KO compared to WT-treated counterparts [1]: +32%
relative lean mass, RAMP1/3 KO compared to WT-treated counterparts [1]: −22%
cFos activated neurons in the LPBN, cagrilintide compared to sCT [2]: −36%
acute effect on eating (WT 129S2 chow-fed mice): significantly reduced eating
less cFos activated AP neurons in RAMP1/3 KO vs WT mice ([3]; 3 nmol/kg i.p., cohort 1, n = 5–6/group): 57%
Predicted (LS) mean diff., AP cFos after square root transformation ([3]; Cagrilintide (3 nmol/kg), WT vs. RAMP 1/3 KO): 2.537
Predicted (LS) mean diff., AP cFos after square root transformation ([3]; RAMP 1/3 KO, Vehicle vs. Cagrilintide (3 nmol/kg), Tukey): -3.878
Predicted (LS) mean diff., AP cFos after square root transformation ([3]; WT, Vehicle vs. Cagrilintide (3 nmol/kg), Tukey): -6.224
cFos activated neurons in the AP, cagrilintide compared to sCT ([3]; both 3 nmol/kg i.p., WT and KO mice, 90 min): −75%
decrease of activated AP neurons in RAMP1/3 KO compared to WT-injected mice [4]: 40%
Functional assay pEC50 [95% CI], cAMP, rCTR(a) (rCTR(a)): 9.54 [n.d] M
Functional assay pEC50 [95% CI], cAMP, rAMYR3 (rAMYR3): 9.46 [0.03] M
effect on body weight ([5]; RAMP1/3 KO mice, 3 nmol/kg/d s.c., 21 days): no effect
acute anorectic effect on day 1 ([5]; RAMP1/3 KO mice, cagrilintide 3, sCT 150 nmol/kg s.c.): no effect
day 21 body weight loss vs WT Veh ([5]; WT mice, 3 nmol/kg/d s.c.): −66%
Body weight change after 3-week treatment ([5]; WT mice, cagrilintide 3, sCT 150 nmol/kg s.c. SID, mean ± SEM, n = 8/group): -3.4 ± 0.51 g
Food intake on Day 1 ([5]; WT mice, cagrilintide 3, sCT 150 nmol/kg s.c., mean ± SEM, n = 7–8/group): 1.2 ± 0.1 g
